What was measured:
[1] = system: endothelium of human small PAs; assay: Baseline endothelial Ca2+ signaling in freshly isolated small PAs from human lungs exposed to HR; type: cell-based; details: ARC; human small PAs (~50 μm)
Experimental: Ca^2+ imaging in Pas: Ca^2+ imaging in small Pas was performed as previously described.8 Fourth-order, small (~50 μm diameter) Pas (see FIG. 1B) were dissected from left lungs in cold HEPES-buffered physiological salt solution (HEPES-PSS; 10 mM HEPES, 134 mM NaCl, 6 mM KCl, 1 mM MgCl2 hexahydrate, 2 mM CaCl2) dihydrate, and 7 mM dextrose; pH adjusted to 7.4 using 1 M NaOH). Ca^2+ imaging studies were performed in en face preparations of small Pas incubated with Fluo-4 AM (10 μM) and pluronic acid (0.04%) at 37° C. for 10 minutes. For studies after sham or lung IR surgery, small Pas were immediately dissected out after the indicated reperfusion time and incubated en face with Fluo-4 AM. For acute hypoxia-reoxygenation (HR) exposure, small Pas were washed with PBS, after which serum free/glucose-free endothelial cell medium was added. Small Pas were placed in a humidified, sealed hypoxia chamber (Billups-Rothenberg, San Diego, CA), which was subsequently flushed with 95% nitrogen/5% CO2 for 20 minutes and placed in a 37° C. incubator to initiate hypoxia. After 1 hour of hypoxia, the chamber was opened to terminate hypoxia. […] Fluo-4 was excited using a 488-nm solid-state laser, and emitted fluorescence was captured using a 525/36-nm band-pass filter. […] Baseline Ca^2+ signaling activity was recorded in the absence of CPA. […]

[2] = system: murine primary pulmonary microvascular endothelial cells (PMVECs); assay: Proinflammatory cytokine release from murine PMVECs after hypoxia-reoxygenation; type: cell-based; details: 6 h hypoxia + 4 h reoxygenation, AR-C 10 mM, 5 μM
Experimental: We used 6 hours hypoxia followed by 4 hours normoxia/reoxygenation (HR) in murine primary pulmonary microvascular endothelial cells (PMVECs) as a surrogate model of lung IR. Control cells were exposed to 10 hours normoxia (N). PMVECs were treated with vehicle or P2Y2R inhibitor AR-C ([…], 6 hrs). The concentrations of chemokine (C—X—C motif) ligand 1 (CXCL1) and monocvte chemoattractant protein-1 (MCP-1) in the culture media was measured using a mouse keratinocyte-derived chemokine (KC)/CXCL1 Quantikine ELISA kit (R&D Systems, Minneapolis, MN) and multiplex cytokine panel assay (Bio-Rad Laboratories, Hercules, CA), respectively. KC and MCP-1 levels were increased in PMVECs exposed to HR. Treatment of PMVECs with P2Y2R inhibitor AR-C reduced the levels of KC (FIG. 13A) and MCP-1 (FIG. 13B) in the culture media.

[3] = system: pulmonary endothelium of small PAs; assay: Endothelial Ca2+ signals in small PAs exposed ex vivo to acute hypoxia-reoxygenation (HR); type: cell-based; details: GSK219 100 nM; small PAs from TRPV4fl/fl mice, 1 h hypoxia + 10 min reoxygenation
Experimental: Ca^2+ imaging in Pas: Ca^2+ imaging in small Pas was performed as previously described.8 Fourth-order, small (~50 μm diameter) Pas (see FIG. 1B) were dissected from left lungs in cold HEPES-buffered physiological salt solution (HEPES-PSS; 10 mM HEPES, 134 mM NaCl, 6 mM KCl, 1 mM MgCl2 hexahydrate, 2 mM CaCl2) dihydrate, and 7 mM dextrose; pH adjusted to 7.4 using 1 M NaOH). Ca^2+ imaging studies were performed in en face preparations of small Pas incubated with Fluo-4 AM (10 μM) and pluronic acid (0.04%) at 37° C. for 10 minutes. For studies after sham or lung IR surgery, small Pas were immediately dissected out after the indicated reperfusion time and incubated en face with Fluo-4 AM. […] Fluo-4 was excited using a 488-nm solid-state laser, and emitted fluorescence was captured using a 525/36-nm band-pass filter. […] Baseline Ca^2+ signaling activity was recorded in the absence of CPA.
Analysis of baseline Ca^2+ signaling activity and TRPV4 sparklet activity in the pulmonary endothelium: Ca^2+ images acquired using the procedure described above were analyzed with custom-designed SparkAn software (source code available at https://github.com/vesselman/SparkAn).^10 Fractional fluorescence (F/F0) traces were obtained by placing a 1.7 μm2 (5×5 pixels) region of interest (ROI) at the peak event amplitude. […] Overall baseline Ca^2+ signals were automatically detected using a threshold of 1.25 F/F0. […]

[4] = system: murine pulmonary microvascular endothelial cells; details: murine PMVECs, acute hypoxia-reoxygenation; cited from earlier work

| SMILES | HR-induced increase in endothelial Ca2+ signaling [1] | KC level in the culture media [2] | MCP-1 level in the culture media [2] | HR-induced increase in endothelial Ca2+ signals [3] | HR-induced secretion of CXCL1/KC [4] |
| --- | --- | --- | --- | --- | --- |
| Cc1ccc2c(c1)C=Cc1cc(C)ccc1C2c1cn(Cc2ccc(C(=O)Nc3nn[nH]n3)o2)c(=O)[nH]c1=S [ARC, AR-C 118925XX] | inhibited | reduced | reduced | – | – |
| O=C(NC1(c2ccccc2)CC1)c1c(CN2CCC(N3CCCCC3)CC2)c(-c2cccc(C(F)(F)F)c2)nc2cc(Br)ccc12 [GSK219, GSK2193874] | – | – | – | completely abolished | attenuated |
